Laboratory results taken from ChEMBL document CHEMBL1158839, “Dichotomins J and K, vasodilator cyclic peptides from Stellaria dichotoma” (J Nat Prod, 2005).
Activity calls are given as the source filed them. The rule behind the calls is not given here.

What was measured:
[1] = system: Aorta; assay: Vasorelaxant activity against norepinephrine-induced contraction in Wistar rat thoracic aorta at 30 uM; type: functional, tissue-based
[2] = system: Aorta; assay: Vasorelaxant activity against norepinephrine-induced contraction in Wistar rat thoracic aorta at 100 uM; type: functional, tissue-based

| Compound | Activity [1] | Activity [2] |
| --- | --- | --- |
| CC[C@@H](C)[C@@H]1NC(=O)CNC(=O)[C@H](C)NC(=O)[C@H](Cc2ccc(O)cc2)NC(=O)[C@H](CC(C)C)NC(=O)[C@H](Cc2ccccc2)NC1=O | Active | – |
| CC[C@@H](C)[C@@H]1NC(=O)[C@H](C(C)C)NC(=O)[C@H](Cc2ccc(O)cc2)NC(=O)[C@H](Cc2ccc(O)cc2)NC(=O)[C@@H]2CCCN2C(=O)[C@H]([C@H](C)CC)NC(=O)[C@H](C(C)C)NC(=O)[C@H](C)NC(=O)[C@@H]2CCCN2C1=O | – | Active |
